# According to US12215112B2, “CD151 inhibitors” (ESFAM BIOTECH PTY LTD, priority 2020, dated 2025):
# Tested on: PC3 cells
# Assay: xCELLigence RTCA real-time cell invasion assay (CIM plate, Matrigel) on PC3 prostate cancer cells
# Format: cell-based
# Conditions: Homo sapiens, PC-3, compound 25 uM to 1 uM, cell index monitored for 72 hours, four-parameter dose-response curve, read-out: IC50, Effect of compounds on the invention on prostate cancer cells
# How it was run: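 PC3 invasion through 5% Matrigel-coated CIM-plate upper chambers was tracked as impedance cell index over 72 h. Compound at 25–1 µM was present in both chambers, with 3×10^4 cells seeded in serum-free RPMI. IC50 came from a four-parameter fit, and IC90 was derived from IC50 and the Hill slope.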
row,Structure (SMILES),IC50 [µM]
1,"COc1cccc(NC(=O)c2nn3c(-c4cn[nH]c4)cc(N4Cc5ccc(Cl)cc5C4)nc3c2C(C)C)c1 [Compound 81, 5-(5-chloroisoindolin-2-yl)-3-isopropyl-N-(3-methoxyphenyl)-7-(1H-pyrazol-4-yl)pyrazolo[1,5-a]pyrimidine-2-carboxamide]",2.45
2,"CC(=O)Nc1cccc(NC(=O)c2nn3c(-c4cn[nH]c4)cc(N4Cc5ccc(Cl)cc5C4)nc3c2C(C)C)c1 [Compound 82, N-(3-acetamidophenyl)-5-(5-chloroisoindolin-2-yl)-3-isopropyl-7-(1H-pyrazol-4-yl)pyrazolo[1,5-a]pyrimidine-2-carboxamide]",2.92
3,"CC(=O)N1CCN(c2cccc(NC(=O)c3nn4c(-c5cn[nH]c5)cc(N5Cc6ccc(Cl)cc6C5)nc4c3C(C)C)c2)CC1 [Compound 83, N-(3-(4-acetylpiperazin-1-yl)phenyl)-5-(5-chloroisoindolin-2-yl)-3-isopropyl-7-(1H-pyrazol-4-yl)pyrazolo[1,5-a]pyrimidine-2-carboxamide]",10.1
4,"CC(=O)N1CCN(c2ccc(NC(=O)c3nn4c(-c5cn[nH]c5)cc(N5Cc6ccc(Cl)cc6C5)nc4c3C(C)C)cc2)CC1 [Compound 84, N-(4-(4-acetylpiperazin-1-yl)phenyl)-5-(5-chloroisoindolin-2-yl)-3-isopropyl-7-(1H-pyrazol-4-yl)pyrazolo[1,5-a]pyrimidine-2-carboxamide]",1.1
5,"COc1cccc(NC(=O)c2nn3c(-c4cn[nH]c4)cc(N4Cc5ccc(Cl)cc5C4)nc3c2C(C)(C)C)c1 [Compound 89, 3-(tert-butyl)-5-(5-chloroisoindolin-2-yl)-N-(3-methoxyphenyl)-7-(1H-pyrazol-4-yl)pyrazolo[1,5-a]pyrimidine-2-carboxamide]",3.11
6,"O=C(Nc1cccc(O)c1)c1nn2c(-c3cn[nH]c3)cc(N3Cc4ccccc4C3)nc2c1C1CC1 [Compound 94, 3-cyclopropyl-N-(3-hydroxyphenyl)-5-(isoindolin-2-yl)-7-(1H-pyrazol-4-yl)pyrazolo[1,5-a]pyrimidine-2-carboxamide]",6.21
7,"CC(=O)N1CCN(c2cccc(NC(=O)c3nn4c(-c5cn[nH]c5)cc(N5Cc6ccccc6C5)nc4c3C3CC3)c2)CC1 [Compound 95, N-(3-(4-acetylpiperazin-1-yl)phenyl)-3-cyclopropyl-5-(isoindolin-2-yl)-7-(1H-pyrazol-4-yl)pyrazolo[1,5-a]pyrimidine-2-carboxamide]",2.12
8,"COc1ccc(NC(=O)c2nn3c(-c4cn[nH]c4)cc(N4Cc5ccccc5C4)nc3c2C2CC2)cc1 [Compound 96, 3-cyclopropyl-5-(isoindolin-2-yl)-N-(4-methoxyphenyl)-7-(1H-pyrazol-4-yl)pyrazolo[1,5-a]pyrimidine-2-carboxamide]",6.47
9,"CC(=O)Nc1cccc(NC(=O)c2nn3c(-c4cn[nH]c4)cc(N4Cc5ccccc5C4)nc3c2C2CC2)c1 [Compound 97, N-(3-acetamidophenyl)-3-cyclopropyl-5-(isoindolin-2-yl)-7-(1H-pyrazol-4-yl)pyrazolo[1,5-a]pyrimidine-2-carboxamide]",1.08
10,"O=C(Nc1cccc(Cl)c1)c1nn2c(-c3cn[nH]c3)cc(N3Cc4ccccc4C3)nc2c1C1CC1 [Compound 98, N-(3-chlorophenyl)-3-cyclopropyl-5-(isoindolin-2-yl)-7-(1H-pyrazol-4-yl)pyrazolo[1,5-a]pyrimidine-2-carboxamide]",12.5
11,"CC(C)c1c(C(=O)Nc2cccc(O)c2)nn2c(-c3cn[nH]c3)cc(N3Cc4ccc(F)cc4C3)nc12 [Compound 99, 5-(5-fluoroisoindolin-2-yl)-N-(3-hydroxyphenyl)-3-isopropyl-7-(1H-pyrazol-4-yl)pyrazolo[1,5-a]pyrimidine-2-carboxamide]",1.23
12,"CC(C)c1c(C(=O)Nc2cccc(O)c2)nn2c(-c3cn[nH]c3)cc(N3Cc4ccc(Cl)cc4C3)nc12 [Compound 100, 5-(5-chloroisoindolin-2-yl)-N-(3-hydroxyphenyl)-3-isopropyl-7-(1H-pyrazol-4-yl)pyrazolo[1,5-a]pyrimidine-2-carboxamide]",2.23
13,"CC(C)c1c(C(=O)Nc2cccc(N3CCOCC3)c2)nn2c(-c3cn[nH]c3)cc(N3Cc4ccc(F)cc4C3)nc12 [Compound 101, 5-(5-fluoroisoindolin-2-yl)-3-isopropyl-N-(3-morpholinophenyl)-7-(1H-pyrazol-4-yl)pyrazolo[1,5-a]pyrimidine-2-carboxamide]",3.99
14,"COCCOc1ccc(NC(=O)c2nn3c(-c4cn[nH]c4)cc(N4Cc5ccc(F)cc5C4)nc3c2C(C)C)cc1 [Compound 102, 5-(5-fluoroisoindolin-2-yl)-3-isopropyl-N-(4-(2-methoxyethoxy)phenyl)-7-(1H-pyrazol-4-yl)pyrazolo[1,5-a]pyrimidine-2-carboxamide]",1.27
15,"CC(C)c1c(C(=O)Nc2ccc3cn[nH]c3c2)nn2c(-c3cn[nH]c3)cc(N3Cc4ccc(F)cc4C3)nc12 [Compound 104, 5-(5-fluoroisoindolin-2-yl)-N-(1H-indazol-6-yl)-3-isopropyl-7-(1H-pyrazol-4-yl)pyrazolo[1,5-a]pyrimidine-2-carboxamide]",2.89
16,"CC(C)c1c(C(=O)Nc2ccc(N3CCOCC3)cc2)nn2c(-c3cn[nH]c3)cc(N3Cc4ccc(F)cc4C3)nc12 [Compound 106, 5-(5-fluoroisoindolin-2-yl)-3-isopropyl-N-(4-morpholinophenyl)-7-(1H-pyrazol-4-yl)pyrazolo[1,5-a]pyrimidine-2-carboxamide]",2.02
17,"CC(C)c1c(C(=O)Nc2ccc(N3CCOCC3)cc2)nn2c(-c3cn[nH]c3)cc(N3Cc4ccc(Cl)cc4C3)nc12 [Compound 107, 5-(5-chloroisoindolin-2-yl)-3-isopropyl-N-(4-morpholinophenyl)-7-(1H-pyrazol-4-yl)pyrazolo[1,5-a]pyrimidine-2-carboxamide]",2.36
18,"CC(C)c1c(C(=O)Nc2cccc(N3CCOCC3)c2)nn2c(-c3cn[nH]c3)cc(N3Cc4ccc(Cl)cc4C3)nc12 [Compound 108, 5-(5-chloroisoindolin-2-yl)-3-isopropyl-N-(3-morpholinophenyl)-7-(1H-pyrazol-4-yl)pyrazolo[1,5-a]pyrimidine-2-carboxamide]",18.7
19,"COCCOc1ccc(NC(=O)c2nn3c(-c4cn[nH]c4)cc(N4Cc5ccc(Cl)cc5C4)nc3c2C(C)C)cc1 [Compound 109, 5-(5-chloroisoindolin-2-yl)-3-isopropyl-N-(4-(2-methoxyethoxy)phenyl)-7-(1H-pyrazol-4-yl)pyrazolo[1,5-a]pyrimidine-2-carboxamide]",3.23
20,"CC(C)c1c(C(=O)Nc2ccc(OC3CCOCC3)cc2)nn2c(-c3cn[nH]c3)cc(N3Cc4ccc(Cl)cc4C3)nc12 [Compound 119, 5-(5-chloroisoindolin-2-yl)-3-isopropyl-7-(1H-pyrazol-4-yl)-N-(4-((tetrahydro-2H-pyran-4-yl)oxy)phenyl)pyrazolo[1,5-a]pyrimidine-2-carboxamide]",3.15
21,"COc1ccc(F)c(NC(=O)c2nn3c(-c4cn[nH]c4)cc(N4Cc5ccc(Cl)cc5C4)nc3c2C(C)C)c1 [Compound 120, 5-(5-chloroisoindolin-2-yl)-N-(2-fluoro-5-methoxyphenyl)-3-isopropyl-7-(1H-pyrazol-4-yl)pyrazolo[1,5-a]pyrimidine-2-carboxamide]",4.94
